Laboratory results published in PubChem BioAssay AID2060508 (Molecular Pharmacology Branch, DTP, NCI, 2025).

Tested on: 454973-116-R2-J3-PDC spheroids, viability, % test/control
Experiment: Anticancer human tumor 454973-116-R2-J3-PDC patient-derived pancreatic carcinoma cell line growth inhibition [GQUAD]
Conditions: spheroids with HUVEC and MSC; for IC50: curve of first compound; for viability, T/C: stronger effect = lower value
In short: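 Viability of tumor cells grown as complex spheroids with endothelial and stromal cells, exposed to drug combinations. Top concentration at or near clinical Cmax (else 10 microM), diluted in half-log increments.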

[1] = second compound 0.0316 µM, first compound 0.0316 µM
[2] = second compound 0.0316 µM, first compound 0.1 µM
[3] = second compound 0.0316 µM, first compound 0.316 µM
[4] = second compound 0.0316 µM, first compound 1 µM
[5] = second compound 0.0316 µM, first compound 3.16 µM
[6] = second compound 0.0316 µM, first compound 10 µM
[7] = second compound 0.1 µM, first compound 0.0316 µM
[8] = second compound 0.1 µM, first compound 0.1 µM
[9] = second compound 0.1 µM, first compound 0.316 µM
[10] = second compound 0.1 µM, first compound 1 µM
[11] = second compound 0.1 µM, first compound 3.16 µM
[12] = second compound 0.1 µM, first compound 10 µM
[13] = second compound 0.316 µM, first compound 0.0316 µM
[14] = second compound 0.316 µM, first compound 0.1 µM
[15] = second compound 0.316 µM, first compound 0.316 µM
[16] = second compound 0.316 µM, first compound 1 µM
[17] = second compound 0.316 µM, first compound 3.16 µM
[18] = second compound 0.316 µM, first compound 10 µM
[19] = second compound 1 µM, first compound 0.0316 µM
[20] = second compound 1 µM, first compound 0.1 µM
[21] = second compound 1 µM, first compound 0.316 µM
[22] = second compound 1 µM, first compound 1 µM
[23] = second compound 1 µM, first compound 3.16 µM
[24] = second compound 1 µM, first compound 10 µM
[25] = second compound 3.16 µM, first compound 0.0316 µM
[26] = second compound 3.16 µM, first compound 0.1 µM
[27] = second compound 3.16 µM, first compound 0.316 µM
[28] = second compound 3.16 µM, first compound 1 µM
[29] = second compound 3.16 µM, first compound 3.16 µM
[30] = second compound 3.16 µM, first compound 10 µM
[31] = second compound 10 µM, first compound 0.0316 µM
[32] = second compound 10 µM, first compound 0.1 µM
[33] = second compound 10 µM, first compound 0.316 µM
[34] = second compound 10 µM, first compound 1 µM
[35] = second compound 10 µM, first compound 3.16 µM
[36] = second compound 10 µM, first compound 10 µM
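Further: spheroids exposed to compounds for seven days.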
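Wherever viability, T/C is given: 100% = DMSO vehicle control viability.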

`CC(C)n1c(=O)n(C)c2cnc3cc(F)c(-c4ccc(OCCCN5CCCCC5)nc4)cc3c21` + CN(C)c1ccc(Nc2c3ccc(NC(=O)CCN4CCCC4)cc3nc3cc(NC(=O)CCN4CCCC4)ccc23)cc1 showed an IC50 (second compound 0.0316 µM) of over 10 µM, an IC50 (second compound 0.1 µM) of over 10 µM and an IC50 (second compound 0.316 µM) of over 10 µM. For the same compound, the IC50 (second compound 1 µM) was over 10 µM, the IC50 (second compound 3.16 µM) was over 10 µM and the IC50 (second compound 10 µM) was 4.49 µM. The viability, T/C [1] was 108%, the viability, T/C [2] was 94.8% and the viability, T/C [3] was 104%. The viability, T/C [4] was 99.2%, the viability, T/C [5] was 78.7% and the viability, T/C [6] was 73.5%. The viability, T/C [7] was 103%, the viability, T/C [8] was 118% and the viability, T/C [9] was 95.2%. It also gave a viability, T/C [10] of 97.1%, a viability, T/C [11] of 68.7% and a viability, T/C [12] of 76.1%. It also gave a viability, T/C [13] of 103%, a viability, T/C [14] of 103% and a viability, T/C [15] of 99.5%. For the same compound, the viability, T/C [16] was 89.1%, the viability, T/C [17] was 75.1% and the viability, T/C [18] was 73.8%. It also gave a viability, T/C [19] of 99.6%, a viability, T/C [20] of 99.3% and a viability, T/C [21] of 91.7%. The viability, T/C [22] was 66.3%, the viability, T/C [23] was 81.8% and the viability, T/C [24] was 65.3%. The viability, T/C [25] was 85.7%, the viability, T/C [26] was 91.7% and the viability, T/C [27] was 95.9%. The viability, T/C [28] was 65.8%, the viability, T/C [29] was 72.5% and the viability, T/C [30] was 63.7%. It also gave a viability, T/C [31] of 76.9%, a viability, T/C [32] of 74.6% and a viability, T/C [33] of 69%. It also gave a viability, T/C [34] of 61.4%, a viability, T/C [35] of 61.8% and a viability, T/C [36] of 34.1%.
With `CC(C)n1c(=O)n(C)c2cnc3cc(F)c(-c4ccc(OCCCN5CCCCC5)nc4)cc3c21` + Cc1[nH]c2ccc(F)cc2c1-c1nc2c3cccnc3c3ncccc3c2[nH]1 the IC50 (second compound 0.0316 µM) was over 10 µM, the IC50 (second compound 0.1 µM) was over 10 µM and the IC50 (second compound 0.316 µM) was over 10 µM. The IC50 (second compound 1 µM) was over 10 µM, the IC50 (second compound 3.16 µM) was over 10 µM and the IC50 (second compound 10 µM) was over 10 µM. The viability, T/C [1] was 112%, the viability, T/C [2] was 101% and the viability, T/C [3] was 105%. For the same compound, the viability, T/C [4] was 101%, the viability, T/C [5] was 95.8% and the viability, T/C [6] was 67.5%. It also gave a viability, T/C [7] of 95.8%, a viability, T/C [8] of 107% and a viability, T/C [9] of 109%. It also gave a viability, T/C [10] of 102%, a viability, T/C [11] of 92.5% and a viability, T/C [12] of 63.7%. It also gave a viability, T/C [13] of 110%, a viability, T/C [14] of 99% and a viability, T/C [15] of 111%. For the same compound, the viability, T/C [16] was 117%, the viability, T/C [17] was 83.9% and the viability, T/C [18] was 65%. It also gave a viability, T/C [19] of 94.8%, a viability, T/C [20] of 101% and a viability, T/C [21] of 112%. The viability, T/C [22] was 93.3%, the viability, T/C [23] was 85.2% and the viability, T/C [24] was 61.5%. It also gave a viability, T/C [25] of 89.1%, a viability, T/C [26] of 101% and a viability, T/C [27] of 96.8%. The viability, T/C [28] was 97.5%, the viability, T/C [29] was 96% and the viability, T/C [30] was 66%. For the same compound, the viability, T/C [31] was 101%, the viability, T/C [32] was 91.9% and the viability, T/C [33] was 88.3%. The viability, T/C [34] was 93.7%, the viability, T/C [35] was 79.9% and the viability, T/C [36] was 59.7%.
